Here are results for one molecule from patent EP4786474A1, “CRYSTALLINE FORM OF QUINAZOLINE DERIVATIVE AND PREPARATION METHOD THEREFOR” (Jiangsu Hengrui Pharmaceuticals Co., Ltd., priority 2023, dated 2025).

This data set in a line: DVS (dynamic vapor sorption) hygroscopicity testing. It is filed as physicochemical. The source says: According to the description of hygroscopicity characteristics and the definition of hygroscopic weight gain in "General Rule 9103, Guidelines for Hygroscopicity Trials for Pharmaceuticals" in the Chinese Pharmacopoeia, Volume IV, 2015 Edition: • deliquescent: sufficient water is absorbed to form a liquid; • extremely hygroscopic: the hygroscopic weight gain is not less than 15%; • hygroscopic: the hygroscopic weight gain is less than 15% but not less than 2%; • slightly hygroscopic: the hygroscopic weight gain is less than 2% but not less than 0.2%; • nonhygroscopic or practically nonhygroscopic: the hygroscopic weight gain is less than 0.2%.
DVS refers to dynamic vapor sorption: The analysis was performed using SMS DVS Advantage; at 25 °C, the humidity was changed as follows: 50%-95%-0%-95%-50%, in steps of 10% (5% for the last step) (specific humidity ranges are shown in corresponding patterns, and those listed here were used in most cases); the criterion was dm/dt being not greater than 0.002%.

Consider `C=CC(=O)N1[C@@H]2CC[C@H]1C[C@@H](Oc1ccc3ncnc(Nc4ccc(Oc5ccn6ncnc6c5)c(C)c4F)c3c1)C2` [Crystal form J, 1-(endo-3-((4-((4-([1,2,4]Triazolo[1,5-a]pyridin-7-yloxy)-2-fluoro-3-methylphenyl)amino)quinazolin-6-yl)oxy)-8-azabicyclo[3.2.1]octan-8-yl)prop-2-en-1-one], for which the hygroscopic weight gain result reads like this: (accelerated experimental conditions, 70% RH) “about 2.64%”; (extreme conditions, 90% RH) “about 8.10%”; (normal storage conditions, 25 °C and 60% RH) “about 2.44%”.
